# Measurements: DBAASP
# How the values were obtained:
# Experiment in all cases: ≥ marks a high value that may be exact or a test limit, other limits are often not marked, values filed in µg/mL are converted to µM
# [1] = tested on: Escherichia coli K12 MG1655
# [2] = tested on: Escherichia coli ATCC 25726
# [3] = tested on: Candida albicans ATCC 90028
# [4] = tested on: Staphylococcus aureus ATCC 25923
# [5] = tested on: Staphylococcus aureus NCTC 8325
# [6] = tested on: Escherichia coli ATCC 25922
# Pseudomonas aeruginosa = tested on: Pseudomonas aeruginosa
# Bacillus subtilis 168 = tested on: Bacillus subtilis 168
# Staphylococcus aureus = tested on: Staphylococcus aureus
# [7] = tested on: Candida albicans F7-39/IDE99
# Escherichia coli B = tested on: Escherichia coli B
# [8] = tested on: Enterococcus faecalis ATCC 29212
# Leuconostoc lactis = tested on: Leuconostoc lactis
# [9] = tested on: Candida albicans ATCC 2002
# Shigella dysenteriae = tested on: Shigella dysenteriae
# Bacillus cereus = tested on: Bacillus cereus
# [10] = tested on: Staphylococcus aureus ATCC 2592
# Streptococcus mutans = tested on: Streptococcus mutans
structure (smiles),measurement,setting,value
CC[C@H](C)[C@H](NC(=O)[C@H](C)N)C(=O)N[C@@H](C)C(=O)N[C@@H](CCCN=C(N)N)C(=O)N[C@H](C(=O)N[C@@H](CCCN=C(N)N)C(=O)N[C@@H](CCCN=C(N)N)C(=O)N[C@@H](CCCN=C(N)N)C(=O)N[C@@H](CC(C)C)C(=O)N[C@@H](CC(C)C)C(=O)N[C@@H](CC(C)C)C(=O)N[C@@H](Cc1ccc(O)cc1)C(=O)N[C@@H](CC(C)C)C(=O)N[C@@H](CC(C)C)C(=O)N[C@@H](C)C(=O)O)[C@@H](C)O [AIARTRRRLLLYLLA],MIC,[1],≥ 71.1 µM
CC[C@H](C)[C@H](NC(=O)CN)C(=O)NCC(=O)N[C@@H](CCCCN)C(=O)N[C@@H](Cc1ccccc1)C(=O)N[C@@H](CC(C)C)C(=O)N[C@@H](Cc1cnc[nH]1)C(=O)N[C@@H](CO)C(=O)N[C@@H](C)C(=O)NCC(=O)N[C@@H](CCCCN)C(=O)N[C@@H](Cc1ccccc1)C(=O)NCC(=O)N[C@@H](CCCCN)C(=O)N[C@@H](C)C(=O)N[C@@H](Cc1ccccc1)C(=O)N[C@H](C(=O)NCC(=O)N[C@@H](CCC(=O)O)C(=O)N[C@H](C(=O)N[C@@H](CCSC)C(=O)N[C@@H](CCCCN)C(=O)N[C@@H](CO)C(=O)O)[C@@H](C)CC)[C@@H](C)CC [GIGKFLHSAGKFGKAFIGEIMKS],MIC,[2],12.5 µM
same,MIC,[3],25 µM
same,MIC,[4],50 µM
CC[C@H](C)[C@H](NC(=O)CN)C(=O)N[C@@H](CC(C)C)C(=O)N[C@@H](CO)C(=O)N[C@@H](CO)C(=O)N[C@H](C(=O)N[C@@H](CCCCN)C(=O)NCC(=O)N[C@H](C(=O)N[C@@H](C)C(=O)N[C@@H](CCCCN)C(=O)NCC(=O)N[C@H](C(=O)N[C@@H](C)C(=O)N[C@@H](CCCCN)C(=O)N[C@@H](CC(N)=O)C(=O)N[C@H](C(=O)N[C@@H](C)C(=O)N[C@@H](C)C(=O)N[C@@H](CCC(N)=O)C(=O)N[C@@H](CC(C)C)C(=O)N[C@@H](CC(C)C)C(=O)N[C@@H](CC(=O)O)C(=O)N[C@H](C(=O)N[C@@H](CC(C)C)C(=O)N[C@@H](CCCCN)C(=O)N[C@H]1CSSC[C@@H](C(=O)O)NC(=O)CNC(=O)[C@H]([C@@H](C)O)NC(=O)[C@H]([C@@H](C)CC)NC(=O)[C@H](CCCCN)NC1=O)[C@@H](C)O)C(C)C)C(C)C)C(C)C)[C@@H](C)CC [GILSSIKGVAKGVAKNVAAQLLDTLKCKITGC],MIC,[2],6 µM
same,MIC,[5],4 µM
same,MIC,[6],4 µM
same,MIC,[3],≥ 62 µM
same,MIC,[4],6 µM
CC[C@H](C)[C@H](NC(=O)[C@H](CC(C)C)NC(=O)[C@H](Cc1cnc[nH]1)NC(=O)CNC(=O)[C@H](CC(C)C)NC(=O)[C@@H](NC(=O)[C@H](CCCCN)NC(=O)[C@H](CO)NC(=O)[C@H](Cc1c[nH]c2ccccc12)NC(=O)[C@H](CCCCN)NC(=O)CN)[C@@H](C)CC)C(=O)N[C@@H](CCCN=C(N)N)C(N)=O [GKWSKILGHLIR],MIC,Pseudomonas aeruginosa,71.7 µM
same,MIC,Bacillus subtilis 168,2 µM
same,MIC,Staphylococcus aureus,23.3 µM
same,MIC,[7],7.4 µM
same,MIC,Escherichia coli B,3.7 µM
CC[C@H](C)[C@H](NC(=O)CNC(=O)[C@@H](NC(=O)[C@@H](NC(=O)[C@H](Cc1cnc[nH]1)NC(=O)[C@H](CCCCN)NC(=O)[C@H](C)NC(=O)[C@H](CC(C)C)NC(=O)[C@H](CC(=O)O)NC(=O)[C@H](CC(C)C)NC(=O)[C@H](CC(C)C)NC(=O)CN)C(C)C)[C@@H](C)CC)C(=O)N[C@@H](C)C(=O)N[C@@H](CO)C(=O)N[C@@H](CCCCN)C(=O)N[C@@H](CC(C)C)C(N)=O [GLLDLAKHVIGIASKL],MIC,[8],100 µM
same,MIC,Leuconostoc lactis,≥ 100 µM
CC[C@H](C)[C@H](N)C(=O)N[C@H](C(=O)N[C@H](C(=O)N1CCC[C@H]1C(=O)N1CCC[C@H]1C(=O)N[C@H](C(=O)N[C@H](C(=O)N[C@@H](CCCCN)C(=O)N[C@@H](CC(=O)O)C(=O)N[C@H](C(=O)N[C@@H](CC(C)C)C(=O)N[C@@H](CCCCN)C(=O)N[C@@H](CCCCN)C(=O)N[C@@H](Cc1ccccc1)C(=O)N[C@H](C(=O)N[C@@H](CCCCN)C(=O)NCC(=O)N[C@@H](C)C(=O)N[C@H](C(=O)N[C@@H](CO)C(=O)N[C@@H](CO)C(=O)N[C@H](C(=O)N[C@@H](CCSC)C(N)=O)C(C)C)[C@@H](C)CC)[C@@H](C)CC)[C@@H](C)O)C(C)C)[C@@H](C)CC)[C@@H](C)CC)[C@@H](C)O [ITIPPIVKDTLKKFIKGAISSVM],MIC,[2],≥ 40 µM
same,MIC,[4],20 µM
CC[C@H](C)[C@H](N)C(=O)N[C@H](C(=O)N[C@H](C(=O)N1CCC[C@H]1C(=O)N1CCC[C@H]1C(=O)N[C@H](C(=O)N[C@H](C(=O)N[C@@H](CCCCN)C(=O)N[C@@H](CC(N)=O)C(=O)N[C@H](C(=O)N[C@@H](CC(C)C)C(=O)N[C@@H](CCCCN)C(=O)N[C@@H](CCCCN)C(=O)N[C@@H](Cc1ccccc1)C(=O)N[C@H](C(=O)N[C@@H](CCCCN)C(=O)NCC(=O)N[C@@H](C)C(=O)N[C@H](C(=O)N[C@@H](CO)C(=O)N[C@@H](C)C(=O)N[C@@H](CC(C)C)C(=O)N[C@@H](CCSC)C(=O)N[C@@H](CO)C(=O)O)C(C)C)[C@@H](C)CC)[C@@H](C)O)C(C)C)[C@@H](C)CC)[C@@H](C)CC)[C@@H](C)O [ITIPPIVKNTLKKFIKGAVSALMS],MIC,[2],≥ 40 µM
same,MIC,[4],10 µM
CSCC[C@@H]1NC(=O)[C@H](C(C)C)NC(=O)[C@H](C)NC(=O)[C@H](CCCN=C(N)N)NC(=O)[C@H](Cc2ccccc2)NC(=O)CNC(=O)CNC(=O)[C@H](CCCCN)NC(=O)[C@@H](NC(=O)[C@H](CCCN=C(N)N)NC(=O)[C@@H]2CCCN2C(=O)[C@H](CCSC)NC(=O)[C@H](CO)NC(=O)[C@H](Cc2ccc(O)cc2)NC(=O)[C@H](C)NC(=O)[C@@H](N)CCCCN)CSSC[C@@H](C(=O)N[C@@H](Cc2c[nH]c3ccccc23)C(=O)N[C@@H](CC(C)C)C(N)=O)NC1=O [KAYSMPRCKGGFRAVMCWL],MIC,[9],22.7 µM
same,MIC,Shigella dysenteriae,5.67 µM
same,MIC,Pseudomonas aeruginosa,22.7 µM
same,MIC,[6],5.67 µM
same,MIC,Bacillus cereus,22.7 µM
same,MIC,[10],11.3 µM
CSCC[C@H](NC(=O)CNC(=O)[C@H](Cc1ccccc1)NC(=O)[C@@H](N)CC(C)C)C(=O)N[C@@H](C)C(=O)N[C@@H](CC(C)C)C(=O)N[C@@H](CCCCN)C(=O)N[C@@H](CC(C)C)C(=O)N[C@@H](CC(C)C)C(=O)N[C@@H](CCCCN)C(=O)N[C@@H](CCCCN)C(=O)N[C@H](C(=O)N[C@@H](CC(C)C)C(N)=O)C(C)C [LFGMALKLLKKVL],MIC,Pseudomonas aeruginosa,50 µM
same,MIC,Bacillus subtilis 168,1.5 µM
same,MIC,Staphylococcus aureus,2.3 µM
same,MIC,[7],10 µM
same,MIC,Escherichia coli B,3.8 µM
CC(C)C[C@H](NC(=O)[C@H](C)NC(=O)[C@@H](N)CC(N)=O)C(=O)N[C@@H](CO)C(=O)N[C@@H](CO)C(=O)N1CCC[C@H]1C(=O)N[C@@H](CCCN=C(N)N)C(=O)N[C@@H](CC(N)=O)C(=O)N[C@@H](CCCCN)C(=O)N[C@H]1CSSC[C@@H](C(=O)N[C@@H](Cc2ccccc2)C(=O)NCC(=O)O)NC(=O)[C@H](CO)NC(=O)[C@H](CO)NC(=O)[C@H](C)NC(=O)[C@H](CCCN=C(N)N)NC(=O)[C@H](CC(=O)O)NC1=O [NALSSPRNKCDRASSCFG],MIC,[9],3.27 µM
same,MIC,Shigella dysenteriae,1.62 µM
same,MIC,Pseudomonas aeruginosa,3.27 µM
same,MIC,[6],26.1 µM
same,MIC,Bacillus cereus,6.53 µM
same,MIC,[10],3.27 µM
NC(=O)[C@H](Cc1ccccc1)NC(=O)[C@H](Cc1c[nH]c2ccccc12)NC(=O)[C@H](Cc1c[nH]c2ccccc12)NC(=O)[C@H](Cc1c[nH]c2ccccc12)NC(=O)[C@H](CCCN=C(N)N)NC(=O)[C@H](CCCN=C(N)N)NC(=O)[C@H](CCCN=C(N)N)NC(=O)[C@@H]1CCCN1C(=O)[C@H](CO)NC(=O)CNC(=O)[C@H](CO)NC(=O)[C@@H]1CCCN1C(=O)[C@H](Cc1ccccc1)NC(=O)[C@H](Cc1c[nH]c2ccccc12)NC(=O)[C@H](Cc1c[nH]c2ccccc12)NC(=O)[C@H](Cc1c[nH]c2ccccc12)NC(=O)[C@H](CCCN=C(N)N)NC(=O)[C@H](CCCN=C(N)N)NC(=O)[C@@H](N)CCCN=C(N)N [RRRWWWFPSGSPRRRWWWF],MIC,Streptococcus mutans,11.5 µM
NC(=O)[C@H](Cc1ccccc1)NC(=O)[C@H](Cc1c[nH]c2ccccc12)NC(=O)[C@H](Cc1c[nH]c2ccccc12)NC(=O)[C@H](Cc1c[nH]c2ccccc12)NC(=O)[C@H](CCCN=C(N)N)NC(=O)[C@H](CCCN=C(N)N)NC(=O)[C@H](CCCN=C(N)N)NC(=O)[C@H](Cc1ccccc1)NC(=O)[C@H](Cc1c[nH]c2ccccc12)NC(=O)[C@H](Cc1c[nH]c2ccccc12)NC(=O)[C@H](Cc1c[nH]c2ccccc12)NC(=O)[C@H](CCCN=C(N)N)NC(=O)[C@H](CCCN=C(N)N)NC(=O)[C@@H](N)CCCN=C(N)N [RRRWWWFRRRWWWF],MIC,Streptococcus mutans,6.76 µM
NC(N)=NCCC[C@H](NC(=O)[C@H](Cc1c[nH]c2ccccc12)NC(=O)[C@H](CCCN=C(N)N)NC(=O)[C@H](Cc1c[nH]c2ccccc12)NC(=O)[C@H](CCCN=C(N)N)NC(=O)[C@H](Cc1c[nH]c2ccccc12)NC(=O)[C@@H](N)CCCN=C(N)N)C(=O)O [RWRWRWR],MIC,Streptococcus mutans,26.6 µM
